Reference: patent publication US10894817B2, “Fatty acid modified urocortin-2 analogs for the treatment of diabetes and chronic kidney disease” (priority 2016, dated 2021)
pEC50: −log10 of the molar value. Where “and” joins values, the source holds several entries; their conditions need not be identical. Equal entries are not always repeated. Starred links: 1 amine or outer side, 2 acyl side, 3 side chain; linkers in the order of their positions; H or OH if unused. Non-standard residues stand in square brackets, D forms with d. Residues, ends and D or L forms follow the SMILES beside them. Groups on a side chain read outwards from the residue. *: point of attachment. C20 diacid = O=C(O)CCCCCCCCCCCCCCCCCCC(=O)*; γGlu = O=C(O)[C@H](CCC(=O)[*:2])N[*:1]; NMeI = CC[C@H](C)[C@H](NC)C(=O)O; AEEA = NCCOCCOCC(=O)O

Key:
human CRHR1 = target: T1, human CRHR1 (Homo sapiens, UniProt P34998); test: human CRHR1 cell-based cAMP assay (Y79 cells); conditions: Y79 cells with endogenous human CRHR1, mean ± SEM of runs, read-out: hCRHR1 Average EC50
T1 construct: which expresses endogenous human CRHR1; host or cells: Y79 human retinoblastoma cells
T1 sequence (P34998 24-415): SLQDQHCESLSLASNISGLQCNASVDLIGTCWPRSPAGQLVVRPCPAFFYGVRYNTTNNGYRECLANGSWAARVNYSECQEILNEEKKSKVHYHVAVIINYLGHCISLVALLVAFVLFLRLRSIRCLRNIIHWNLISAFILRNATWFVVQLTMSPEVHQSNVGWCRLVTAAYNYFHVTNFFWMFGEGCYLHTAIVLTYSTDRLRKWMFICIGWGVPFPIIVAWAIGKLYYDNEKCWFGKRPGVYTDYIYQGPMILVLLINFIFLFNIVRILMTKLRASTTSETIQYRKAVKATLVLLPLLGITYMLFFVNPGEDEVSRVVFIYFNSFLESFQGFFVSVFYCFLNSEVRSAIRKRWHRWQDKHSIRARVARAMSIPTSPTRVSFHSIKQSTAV
Method: CRHR agonistic activity is measured in a cell-based cAMP assay. Serial dilutions of the test peptides are made in assay buffer containing Hank's Balanced Salt Solution (HBSS, without phenol red) supplemented with 20 mM HEPES and 0.05% lactalbumin enzymatic hydrolysate (LAH) (“assay buffer”). The highest concentration that is used starts from 1 μM in the human CRHR2b, whereas 100 μM starting concentration is used in the human CRHR1 assay. A one to three dilution of the test peptides is used in both assays.
The human Retinoblastoma cell line Y79 (ATCC #HTB-18), which expresses endogenous human CRHR1, is used in the human CRHR1 assay. The cells are grown in RPMI 1640 (Hyclone, #SH30255) containing 20% fetal bovine serum and 10 mM HEPES, in suspension culture. Cells are centrifuged to remove the culture media and washed once in HBSS supplemented with 20 mM HEPES. The cells are resuspended in the assay buffer and 20,000 cells are used per treatment in the human CRHR1 assay.
The cells are dispensed into Costar 96-well black polystyrene half area EIA/RIA plates (Corning Incorporated, Corning, N.Y.) followed by the addition of the diluted peptides, each at a volume of 20 μL. The agonist induced cAMP levels are detected using a HTRF cAMP Dynamic 2 kit (CisBio, Bedford, Mass.). After incubation at 37° C. for 30 min, the assay is stopped by cell lysis via the addition of 20 μL of d2-labeled cAMP and followed by 20 μL of cryptate-labeled anti-cAMP antibody, as described by the manufacturer. Cellular cAMP (as a result of agonist stimulation) competes with the d2-labeled cAMP for binding to the antibody. HTRF detection is performed on an Envision plate reader (Perkin Elmer Life and Analytical Sciences, Waltham, Mass.) by measuring ratiometric emission at 620 and 665 nm after excitation at 320 nm.
The data are converted to picomoles of cAMP using a standard curve obtained from the same assay performed with varying concentrations of unlabeled cAMP. Percent of the maximum activation of the cells is calculated using converted picomole cAMP data by comparing to the amount of cAMP produced by 1 μM human UCN2 for the human CRHR2b or 1 μM human UCN1 for the human CRHR1 assay. The data are analyzed using a Curve Fitting Tool to calculate ED50. Numeric values shown below in Table 1 represent the mean of multiple runs (number of runs shown in parentheses) following the mean value±SEM.

[1] = Pharmacokinetics, single subcutaneous dose, rats
Method: (§1) Plasma concentrations of compounds were determined by LC/MS methods. Each method measured the intact compound; peptide plus linked time extension. For each assay, the compound and an analog, used as an internal standard (IS), were extracted from 100% mouse, rat or monkey plasma (25 μl) using acetonitrile. Two distinct layers were formed upon centrifugation with the compound and the IS located in the supernatant layer. An aliquot of the supernatant (80 μl) was transferred to a Thermo Protein Precipitation Plate with water (150 μl) and formic acid (25 μl) followed by mixing. A final 31% acetonitrile in 10% formic acid sample (10 μl) was loaded onto a Supelco Analytical Discovery BIO Wide Pore C5-3 column (5 cm×1 mm, 3 μm). The column effluent was directed into a Thermo Q-Exactive mass spectrometer for detection and quantitation.
Male Sprague Dawley rats were administered a single subcutaneous dose (50 or 150 nmol/kg) of a compound described herein in 20 mM Tris-HCl Tris Buffer (pH 8) at a volume of 0.26 or 0.77 mL/kg.

[2] = Pharmacokinetics, single subcutaneous dose, mice; conditions: sc
Method: as §1
Male CD-1 mice were administered a single subcutaneous dose (350, 386 or 388 nmol/kg) of a compound described herein in 20 mM Tris-HCl Tris Buffer (pH 7 or 8) at a volume of 0.05 or 0.06 mL/animal. Blood was collected at 6, 12, 24, 48, 72, 96, 120 and 168 hours postdose for pharmacokinetic characterization (101).

[3] = Pharmacokinetics, single subcutaneous dose, monkeys
Method: as §1
Male Cynomolgus monkeys were administered a single subcutaneous dose or intravenous dose (96.4 nmol/kg) of a compound described herein in 20 mM Tris-HCl Buffer (pH 7) at a volume of 1 mL/kg. Blood was collected from each animal at 2, 6, 24, 48, 72, 96, 168, 240, 336, 408, and 504 hours postdose for pharmacokinetic characterization.
Male Cynomolgus monkeys were also administered a single subcutaneous dose (50 nmol/kg) of a compound described herein in 20 mM Tris-HCl Buffer (pH 8) at a volume of 0.26 mL/kg. Blood was collected from each animal at 3, 6, 12, 24, 48, 72, 96, 120, 168, 192, 240, 336, 408, and 504 hours postdose for pharmacokinetic characterization.

[4] = male, Sprague Dawley, rat, plasma, sc, 150 nmol/kg
[5] = male, CD-1, mouse, plasma, 386 nmol/kg
[6] = male Cynomolgus monkeys, single 96.4 nmol/kg s.c., individual animal
[7] = male, cynomolgus monkey, plasma, sc, 96.4 nmol/kg
[8] = male, Sprague Dawley, rat, plasma, sc, 50 nmol/kg
[9] = male, CD-1, mouse, plasma, 350 nmol/kg
[10] = male Cynomolgus monkeys, single 50 nmol/kg s.c., individual animal
[11] = male, cynomolgus monkey, plasma, sc, 50 nmol/kg

CC[C@H](C)[C@H](NC(C)=O)C(=O)N[C@H](C(=O)N[C@@H](CC(C)C)C(=O)N[C@@H](CO)C(=O)N[C@@H](CC(C)C)C(=O)N[C@@H](CC(=O)O)C(=O)N[C@H](C(=O)N1CCC[C@H]1C(=O)N[C@H](C(=O)NCC(=O)N[C@@H](CC(C)C)C(=O)N[C@@H](CC(C)C)C(=O)N[C@@H](CCC(N)=O)C(=O)N[C@H](C(=O)N[C@@H](CC(C)C)C(=O)N[C@@H](CC(C)C)C(=O)N[C@@H](CCC(=O)O)C(=O)N[C@@H](CCC(N)=O)C(=O)N[C@@H](CCC(=O)O)C(=O)N[C@@H](CCCCN)C(=O)N[C@@H](CCC(N)=O)C(=O)N[C@@H](CCC(=O)O)C(=O)N[C@@H](CCCCN)C(=O)N[C@@H](CCC(=O)O)C(=O)N[C@@H](CCCCN)C(=O)N[C@@H](CCC(N)=O)C(=O)N[C@@H](CCC(N)=O)C(=O)N[C@@H](C)C(=O)N[C@@H](CCCCNC(=O)COCCOCCNC(=O)COCCOCCNC(=O)CC[C@H](NC(=O)CC[C@H](NC(=O)CCCCCCCCCCCCCCCCCCC(=O)O)C(=O)O)C(=O)O)C(=O)N[C@H](C(=O)N[C@@H](CC(N)=O)C(=O)N[C@@H](C)C(=O)N[C@@H](CCC(N)=O)C(=O)N[C@H](C(=O)N[C@@H](CC(C)C)C(=O)N[C@@H](C)C(=O)N[C@@H](CCC(N)=O)C(=O)N[C@H](C(N)=O)C(C)C)[C@@H](C)CC)[C@@H](C)O)[C@@H](C)CC)[C@@H](C)CC)C(C)C)C(C)C [Example 2] (Ac-IVLSLDVPIGLLQILLEQEKQEKEKQQAK([AEEA-AEEA-γGlu-γGlu-C20 diacid])TNAQILAQV-NH2)
pEC50 (human CRHR1): < 5.00 | AUC(0-inf) [1, 4]: 32.3 µM·h | Cmax [1, 4]: 429 nM | Tmax ([1]; rat, in vivo, sc, 150 nmol/kg, male Sprague Dawley rats, single 150 nmol/kg s.c., Mean): 24 h | Tmax ([1]; rat, in vivo, sc, 150 nmol/kg, male Sprague Dawley rats, single 150 nmol/kg s.c., individual animal): 24 h | AUC(0-inf) [2, 5]: 46.5 µM·h | Cmax [2, 5]: 1150 nM | Tmax ([2]; mouse, in vivo, 386 nmol/kg): 12 h | Tmax ([3]; cynomolgus monkey, in vivo, sc, 96.4 nmol/kg, Tmax, male Cynomolgus monkeys, single 96.4 nmol/kg s.c., Mean): 36 h | Tmax ([3]; cynomolgus monkey, in vivo, sc, 96.4 nmol/kg, Tmax, male Cynomolgus monkeys, single 96.4 nmol/kg s.c., individual animal): 24 h | AUC(0-inf) [3, 6]: 237.954 µM·h and 245.711 µM·h | Cmax [3, 6]: 1238 nM and 1699 nM | Tmax [3, 6]: 48 h | AUC(0-inf) [3, 7]: 242 µM·h | Cmax [3, 7]: 1470 nM

CC[C@H](C)[C@H](NC)C(=O)N[C@H](C(=O)N[C@@H](CC(C)C)C(=O)N[C@@H](CO)C(=O)N[C@@H](CC(C)C)C(=O)N[C@@H](CC(=O)O)C(=O)N[C@H](C(=O)N1CCC[C@H]1C(=O)N[C@H](C(=O)NCC(=O)N[C@@H](CC(C)C)C(=O)N[C@@H](CC(C)C)C(=O)N[C@@H](CCC(N)=O)C(=O)N[C@H](C(=O)N[C@@H](CC(C)C)C(=O)N[C@@H](CC(C)C)C(=O)N[C@@H](CCC(=O)O)C(=O)N[C@@H](CCC(N)=O)C(=O)N[C@@H](CCC(=O)O)C(=O)N[C@@H](CCCCN)C(=O)N[C@@H](CCC(N)=O)C(=O)N[C@@H](CCC(=O)O)C(=O)N[C@@H](CCCCN)C(=O)N[C@@H](CCC(=O)O)C(=O)N[C@@H](CCCCN)C(=O)N[C@@H](CCC(N)=O)C(=O)N[C@@H](CCC(N)=O)C(=O)N[C@@H](C)C(=O)N[C@@H](CCCCNC(=O)COCCOCCNC(=O)COCCOCCNC(=O)CC[C@H](NC(=O)CC[C@H](NC(=O)CCCCCCCCCCCCCCCCCCC(=O)O)C(=O)O)C(=O)O)C(=O)N[C@H](C(=O)N[C@@H](CC(N)=O)C(=O)N[C@@H](C)C(=O)N[C@@H](CCC(N)=O)C(=O)N[C@H](C(=O)N[C@@H](CC(C)C)C(=O)N[C@@H](C)C(=O)N[C@@H](CCC(N)=O)C(=O)N[C@H](C(N)=O)C(C)C)[C@@H](C)CC)[C@@H](C)O)[C@@H](C)CC)[C@@H](C)CC)C(C)C)C(C)C [Example 4] (H-[NMeI]VLSLDVPIGLLQILLEQEKQEKEKQQAK([AEEA-AEEA-γGlu-γGlu-C20 diacid])TNAQILAQV-NH2)
pEC50 (human CRHR1): < 4.00 | Cmax ([1]; male Sprague Dawley rats, single 50 nmol/kg s.c., individual animal): 126 nM and 150 nM and 127 nM | Cmax ([1]; male Sprague Dawley rats, single 150 nmol/kg s.c., individual animal): 356 nM and 527 nM and 482 nM | AUC(0-inf) [1, 8]: 7.51 µM·h | Cmax [1, 8]: 134 nM | Tmax ([1]; male, Sprague Dawley, rat, plasma, sc, 50 nmol/kg, male Sprague Dawley rats, single 50 nmol/kg s.c., Mean): 24 h | Tmax ([1]; male, Sprague Dawley, rat, plasma, sc, 50 nmol/kg, male Sprague Dawley rats, single 50 nmol/kg s.c., individual animal): 24 h | AUC(0-inf) [1, 4]: 25.1 µM·h | Cmax [1, 4]: 455 nM | Tmax ([1]; male, Sprague Dawley, rat, plasma, sc, 150 nmol/kg, male Sprague Dawley rats, single 150 nmol/kg s.c., Mean): 24 h | Tmax ([1]; male, Sprague Dawley, rat, plasma, sc, 150 nmol/kg, male Sprague Dawley rats, single 150 nmol/kg s.c., individual animal): 24 h | AUC(0-inf) [2, 9]: 51.6 µM·h | Cmax [2, 9]: 1160 nM | Tmax [2, 9]: 24 h | AUC(0-inf) [3, 10]: 51.829 µM·h and 46.654 µM·h | Cmax [3, 10]: 333 nM and 291 nM | AUC(0-inf) [3, 11]: 49.2 µM·h | Cmax [3, 11]: 312 nM | Tmax ([3]; male, cynomolgus monkey, plasma, sc, 50 nmol/kg, Tmax, male Cynomolgus monkeys, single 50 nmol/kg s.c., Mean): 36 h | Tmax ([3]; male, cynomolgus monkey, plasma, sc, 50 nmol/kg, Tmax, male Cynomolgus monkeys, single 50 nmol/kg s.c., individual animal): 48 h
